Literature values in patent publication US10441534B2, “Method for treating gynecological diseases” (PregLem SA, priority 2012, dated 2019).

Columns and labels:
[1] = test system: uterine fibroids; settings: three months treatment period
[2] = once daily UPA 5 mg tablets, plasma

SMILES: CC(=O)O[C@]1(C(C)=O)CC[C@H]2[C@@H]3CCC4=CC(=O)CCC4=C3[C@@H](c3ccc(N(C)C)cc3)C[C@@]21C [ulipristal acetate, 17α-acetoxy-11β-(4-(N,N-dimethylamino)-phenyl)-19-norpregna-4,9-diene-3,20-dione]
- efficacy in patient with uterine fibroids [1]: efficient on the control of bleeding, reduction of fibroids volume and improvement of the patient quality of life
- UPA Cmax [2]: about 25 ng/mL
- UPA steady state concentrations [2]: about 3 ng/mL
